PMC12294558, “New 1,2,4-Triazole Derivatives with a N-Mannich Base Structure Based on a 4,6-Dimethylpyridine Scaffold as Anticancer Agents: Design, Synthesis, Biological Evaluation, and Molecular Modeling” (International Journal of Molecular Sciences, 2025)

Legend:
p53 = p53 Human ELISA on HT-29 cell lysates; type: cell-based; details: HT-29, 1 µM, 24 h
Method: (§1) To check the effect of compound 6 on the level of p-53 and caspase-3 protein, another test was performed on HT-29 cells, taking doxorubicin as the reference drug.
(§2) To assess the level of caspase-3 and p53 protein, HT-29 cell lysates were used after 24 h of incubation with compounds 5 and 6. The supernatant was collected in the prepared and labeled tubes, the cells from the wells were scraped, and the wells were washed with cold PBS, which was also collected. The tubes were then centrifuged, the supernatant was removed, and the cell pellet was lysed in a cell extraction vessel for 30 min on ice, with […] every 10 min. The lysate was transferred to centrifuge tubes and centrifuged at 13,000 rpm for 10 min at 4 °C. The supernatant was transferred to clean tubes in a microcentrifuge.
(§3) The following kits were used: Human Caspase-3 (active) ELISA Kit (KHO1091) and p53 Human ELISA Kit (BMS256), used following the manufacturer’s instructions. ELISA kits were purchased from Thermo Fisher Scientific (Waltham, MA, USA). The absorbance was measured using a Multiskan GO microplate reader (Thermo Fisher Scientific, Waltham, MA, USA) at wavelengths specific to each kit, as recommended by the manufacturer.

Caspase-3 = test: Human Caspase-3 (active) ELISA on HT-29 cell lysates; type: cell-based; details: HT-29, 1 µM, 24 h
Method: as §1, §2, §3

interleukin-1β = test: IL-1β ELISA in HT-29 supernatant; type: cell-based, human; details: HT-29, 1 µM
Excerpt: (§4) The different effects of the anticancer compound on IL-6 and IL-1β can be explained by the different regulatory mechanisms of these cytokines and the distinct signaling pathways targeted by the therapy. The reduction in IL-6 levels may be due to the direct action of the compound on pathways promoting this cytokine or its ability to inhibit inflammatory processes specific to IL-6. In contrast, the increase in IL-1β levels might result from the inflammatory response to cellular stress or apoptosis induced by the therapy, leading to activation of the immune system and increased production of IL-1β.
(§5) Cytokine levels (IL-1β and IL-6) in the supernatant were measured for HT-29 and EPG cells treated with compounds 5 and 6, according to the instructions provided by the manufacturer of the ELISA kits were purchased from Abcam (Cambridge, UK). The absorbance was measured using a Multiskan GO microplate reader (Thermo Fisher Scientific, Waltham, MA, USA) at wavelengths specific to each kit, as recommended by the manufacturer.

interleukin-6 = test: IL-6 ELISA in HT-29 supernatant; type: cell-based, human; details: HT-29, 1 µM
Excerpt: as §4, §5

Cc1ccc(N2CCN(Cn3nc(CNC(=O)c4c(C)cc(C)nc4S)n(-c4ccccc4)c3=S)CC2)cc1 [Compound 6]
p53 Conc. ± SD (p53): 3.50 ± 0.07 U/mL
Caspase-3 Conc. ± SD (Caspase-3): 0.48 ± 0.07 ng/mL
IL-1β Conc. ± SD (interleukin-1β): 0.51 ± 0.11 pg/mL
IL-6 Conc. ± SD (interleukin-6): 7.80 ± 0.30 pg/mL
